Laboratory results taken from US20090023186A1, “USE OF VALPROIC ACID FOR ENHANCING PRODUCTION OF RECOMBINANT PROTEINS IN MAMMALIAN CELLS” (EXCELLGENE SA, priority 2007, published 2009).

Key:
HEK293E cells [1] = assay: Combination with IDMTs, IgG batch yield by ELISA (Example 6); type: cell-based, Human; settings: no addition = 100%, day 5
Procedure: 10 million suspension-adapted HEK293E cells were resuspended in 0.5 ml of Ex-Cell 293 HEK 293 serum-free medium with 4 mmol/l L-glutamine (Cat. No. 14571C-[…]; Lot No. 6A0093; SAFC Biosciences, Lenexa, Kans., USA, “Ex-Cell” medium; note: “Ex-Cell” medium-as used herein-refers to a medium comprising 4 mmol/l L-glutamine) in a 50-ml filter tube each (TPP AG, Trasadingen, Switzerland; Cat. No. 87050, Lot 20050174). In a separate set, 10 million suspension-adapted CHO DG44 cells were resuspended in 0.5 ml of ProCHO5 serum-free medium with 4 mmol/[…] hypoxanthine and 0.194 g/l thymidine (BioWhittaker (Lonza), Belgium; Cat. No. BE12-[…]; Lot No. 7MB0040; “ProCHO5” medium; note: “ProCHO5” medium-as used herein-refers to a medium comprising 4 mmol/[…] hypoxanthine and 0.194 g/l thymidine) in a 50-ml filter tube each (TPP AG, Trasadingen, Switzerland; Cat. No. 87050, Lot 20050174). Then 12.5 μg plasmid DNA at a concentration of 1 μg/μl was added in each tube with the following composition 50% (6.25 μg) p-LC (SEQ ID NO: 1) 50% (6.25 μg) p-HC (SEQ ID NO: 3). Plasmid p-LC comprises the genetic information for the production of the light chain of an IgG antibody, plasmid p-HC comprises the genetic information for the production of the heavy chain of an IgG antibody. The particular vector constructs used in the present invention can also be obtained from the inventors. The inventors can be contacted via e-mail at […]. […] In short, Goat anti-human kappa light chain IgG (Biosource) was used for coating the ELISA-plates, and with AP-conjugated goat anti-human gamma chain IgG (Biosource) the synthesized IgG1 was detected. […] Absorption was measured at 405 nm against 490 nm using a microplate reader (SPECTRAmaxTM340; Molecular Devices, Palo Alto, Calif., USA).

CHO DG44 cells [2] = assay: as above; type: cell-based, Chinese Hamster; settings: day 5; for Fold increase in batch yield over control: no addition = 100%; for interaction with VPA in increasing batch yield: CHO cells
Procedure: 10 million suspension-adapted HEK293E cells were resuspended in 0.5 ml of Ex-Cell 293 HEK 293 serum-free medium with 4 mmol/l L-glutamine (Cat. No. 14571C-[…]; Lot No. 6A0093; SAFC Biosciences, Lenexa, Kans., USA, “Ex-Cell” medium; note: “Ex-Cell” medium-as used herein-refers to a medium comprising 4 mmol/l L-glutamine) in a 50-ml filter tube each (TPP AG, Trasadingen, Switzerland; Cat. No. 87050, Lot 20050174). In a separate set, 10 million suspension-adapted CHO DG44 cells were resuspended in 0.5 ml of ProCHO5 serum-free medium with 4 mmol/[…] hypoxanthine and 0.194 g/l thymidine (BioWhittaker (Lonza), Belgium; Cat. No. BE12-[…]; Lot No. 7MB0040; “ProCHO5” medium; note: “ProCHO5” medium-as used herein-refers to a medium comprising 4 mmol/[…] hypoxanthine and 0.194 g/l thymidine) in a 50-ml filter tube each (TPP AG, Trasadingen, Switzerland; Cat. No. 87050, Lot 20050174). Then 12.5 μg plasmid DNA at a concentration of 1 μg/μl was added in each tube with the following composition 50% (6.25 μg) p-LC (SEQ ID NO: 1) 50% (6.25 μg) p-HC (SEQ ID NO: 3). Plasmid p-LC comprises the genetic information for the production of the light chain of an IgG antibody, plasmid p-HC comprises the genetic information for the production of the heavy chain of an IgG antibody. The particular vector constructs used in the present invention can also be obtained from the inventors. The inventors can be contacted via e-mail at […]. Moreover, commercial services do exist that produce any desired nucleotide sequence even comprising several kilobase pairs including complete expression cassettes in plasmid backgrounds (e.g., Invitrogen, Carlsbad, USA; Geneart, Germany.) Thus, providing the genetic sequence information of the plasmids should enable one of ordinary skill in the art to order the plasmids of the present invention at one of the commercial services listed. After shortly mixing the DNA with the cells by gentle shaking, 25 μg of 25-kd linear polyethyleneimine (“PEI”; Polysciences, Eppelheim, Germany; [2]) were added at a concentration of 1 μg/μl to each of the tubes. After shortly mixing by gentle shaking, the filter tubes containing the cells together with the DNA and PEI were transferred into an orbital shaker (Kühner Shaker Cabinet ISF-4-W, “Kühner shaker”, Kühner AG, Birsfelden, Switzerland), and the cells were incubated for 4 hours at 37° C. in a 5% CO2 atmosphere under shaking at 180 rpm. After that time, 4.5 ml of Ex-Cell medium were added to each of the filter tubes containing HEK 293 cells and 4.5 ml of Pro-CHO5 were added to each of the filter tubes containing CHO DG44 cells. Then, valproic acid was added to each of the tubes at the corresponding final concentration. In addition, the following chemicals were added to the corresponding tubes at a final concentration of: […] Azacytidine was purchased from Sigma-Aldrich Chemie GmbH, Industriestrasse 25, CH-9471 Buchs SG, Catalog Number A1287-1 VL. RG108 was purchased from Sigma-Aldrich Chemie GmbH, Industriestrasse 25, CH-9471 Buchs SG, Catalog Number R8279-10MG. The cells then were returned into the Kuhner shaker and incubated at 37° C. in a 5% CO2 atmosphere under shaking at 180 rpm. […] In short, Goat anti-human kappa light chain IgG (Biosource) was used for coating the ELISA-plates, and with AP-conjugated goat anti-human gamma chain IgG (Biosource) the synthesized IgG1 was detected. […] Absorption was measured at 405 nm against 490 nm using a microplate reader (SPECTRAmaxTM340; Molecular Devices, Palo Alto, Calif., USA).

HEK293E cells [3] = assay: Influence of temperature on IgG batch titer and comparison with sodium butyrate (Example 2); type: cell-based, Human; settings: 3 mmol/l sodium butyrate; relative to control = 1; day 5 after transfection
Procedure: (§1) No. 14571C-[…]; Lot No. 6A0093; SAFC Biosciences, Lenexa, Kans., USA, “Ex-Cell” medium; note: “Ex-Cell” medium-as used herein-refers to a medium comprising 4 mmol/l L-glutamine) in a 50-ml filter tube each (TPP AG, Trasadingen, Switzerland; Cat. No. 87050, Lot 20050174). In a separate set, 10 million suspension-adapted CHO DG44 cells were resuspended in 0.5 ml of ProCHO5 serum-free medium with 4 mmol/[…] hypoxanthine and 0.194 g/l thymidine (BioWhittaker (Lonza), Belgium; Cat. No. BE12-[…]; Lot No. 7 MB0040; “ProCHO5” medium; note: “ProCHO5” medium-as used herein-refers to a medium comprising 4 mmol/[…] hypoxanthine and 0.194 g/l thymidine) in a 50-ml filter tube each (TPP AG, Trasadingen, Switzerland; Cat. No. 87050, Lot 20050174). Then 12.5 μg plasmid DNA at a concentration of 1 μg/μl was added in each tube with the following composition 50% (6.25 μg) p-LC (SEQ ID NO: 1) 50% (6.25 μg) p-HC (SEQ ID NO: 3). Plasmid p-LC comprises the genetic information for the production of the light chain of an IgG antibody, plasmid p-HC comprises the genetic information for the production of the heavy chain of an IgG antibody. The particular vector constructs used in the present invention can also be obtained from the inventors. The inventors can be contacted via e-mail at […]. Moreover, commercial services do exist that produce any desired nucleotide sequence even comprising several kilobase pairs including complete expression cassettes in plasmid backgrounds (e.g., Invitrogen, Carlsbad, USA; Geneart, Germany.) Thus, providing the genetic sequence information of the plasmids should enable one of ordinary skill in the art to order the plasmids of the present invention at one of the commercial services listed. After shortly mixing the DNA with the cells by gentle shaking, 25 μg of 25-kd linear polyethyleneimine (“PEI”; Polysciences, Eppelheim, Germany; [2]) were added at a concentration of 1 μg/μl to each of the tubes. After shortly mixing by gentle shaking, the filter tubes containing the cells together with the DNA and PEI were transferred into an orbital shaker (Kühner Shaker Cabinet ISF-4-W, “Kühner shaker”, Kühner AG, Birsfelden, Switzerland), and the cells were incubated for 4 hours at 37° C. in a 5% CO2 atmosphere under shaking at 180 rpm. After that time, 4.5 ml of Ex-Cell medium were added to each of the filter tubes containing HEK 293 cells and 4.5 ml of Pro-CHO5 were added to each of the filter tubes containing CHO DG44 cells. […] No. […] Sigma-Aldrich Chemie GmbH, Industriestrasse 25, CH-9471 Buchs SG) was added to the corresponding tubes at the corresponding final concentrations. The cells then were returned into the Kühner shaker. Half the tubes were incubated at 37° C. in a 5% CO2 atmosphere under shaking at 180 rpm, the other half was incubated at 31° C. […] The ELISA was performed as published in prior art. In short, Goat anti-human kappa light chain IgG (Biosource) was used for coating the ELISA-plates, and with AP-conjugated goat anti-human gamma chain IgG (Biosource) the synthesized IgG1 was detected. NPP was used as a substrate for the alkaline phosphatase. Absorption was measured at 405 nm against 490 nm using a microplate reader (SPECTRAmaxTM340; Molecular Devices, Palo Alto, Calif., USA).

CHO DG44 cells [4] = assay: as above; type: cell-based, Chinese Hamster; settings: 3 mmol/l sodium butyrate; relative to control = 1; day 5 after transfection
Procedure: as §1

HEK293E cells [5] = assay: Preferred embodiment: transient IgG expression with p18 and p21 co-transfection, batch titer by ELISA; type: cell-based, Human
Procedure: 20 million suspension-adapted HEK293E cells were resuspended in 1 ml of Ex-Cell 293 HEK 293 serum-free medium with 4 mmol/l L-glutamine (Cat. No. 14571C-[…]; Lot No. 6A0093; SAFC Biosciences, Lenexa, Kans., USA, “Ex-Cell” medium; note: “Ex-Cell” medium-as used herein-refers to a medium comprising 4 mmol/l L-glutamine) in a 50-ml filter tube each (TPP AG, Trasadingen, Switzerland; Cat. No. 87050, Lot 20050174). Then 50 μg plasmid DNA at a concentration of 1 μg/μl was added in each tube with the following composition […] Plasmid p-LC comprises the genetic information for the production of the light chain of an IgG antibody, plasmid p-HC comprises the genetic information for the production of the heavy chain of an IgG antibody, plasmid p-p18 comprises the genetic information for the protein p18, and plasmid p-p21 comprises the genetic information for the protein p21. The particular vector constructs used in the present invention can also be obtained from the inventors. The inventors can be contacted via e-mail at […]. Moreover, commercial services do exist that produce any desired nucleotide sequence even comprising several kilobase pairs including complete expression cassettes in plasmid backgrounds (e.g., Invitrogen, Carlsbad, USA; Geneart, Germany.) Thus, providing the genetic sequence information of the plasmids should enable one of ordinary skill in the art to order the plasmids of the present invention at one of the commercial services listed. After shortly mixing the DNA with the cells by gentle shaking, 100 μg of 25-kd linear polyethyleneimine (“PEI”; Polysciences, Eppelheim, Germany; [2]) were added at a concentration of 1 μg/μl to each of the tubes. After shortly mixing by gentle shaking, the filter tubes containing the cells together with the DNA and PEI were transferred into an orbital shaker (Kühner Shaker Cabinet ISF-4-W, “Kühner shaker”, Kühner AG, Birsfelden, Switzerland), and the cells were incubated for 3 hours at 37° C. in a 5% CO2 atmosphere under shaking at 180 rpm. After that time, 4 ml of Ex-Cell medium were added to each of the filter tubes. […] No. B5887-1G; Sigma-Aldrich Chemie GmbH, Industriestrasse 25, CH-9471 Buchs SG) was added to the corresponding tubes at the corresponding final concentrations. […] The ELISA was performed as published in prior art. In short, Goat anti-human kappa light chain IgG (Biosource) was used for coating the ELISA-plates, and with AP-conjugated goat anti-human gamma chain IgG (Biosource) the synthesized IgG1 was detected. NPP was used as a substrate for the alkaline phosphatase. Absorption was measured at 405 nm against 490 nm using a microplate reader (SPECTRAmaxTM340; Molecular Devices, Palo Alto, Calif., USA).

| Compound | Fold increase in batch yield over control (HEK293E cells [1]; Azacytidine 6 μmol/l) | Fold increase in batch yield over control (CHO DG44 cells [2]; Azacytidine 4 μmol/l) | interaction with VPA in increasing batch yield (CHO DG44 cells [2]) | Fold increase in batch yield over control (HEK293E cells [1]; RG108 8 μmol/l) | Fold increase in batch yield over control (CHO DG44 cells [2]; RG108 60 μmol/l) | Batch titer increase at 31° C. (HEK293E cells [3]) | Batch titer increase at 37° C. (HEK293E cells [3]) | Batch titer increase at 31° C. (CHO DG44 cells [4]) | Batch titer increase at 37° C. (CHO DG44 cells [4]) | Batch titer (HEK293E cells [5]; 3 mmol/l sodium butyrate, IgG with p18 and p21, day 14 after transfection) [mg/L] | Fold increase over control (HEK293E cells [5]; 3 mmol/l sodium butyrate, day 14 after transfection) [fold] | optimal concentration (HEK293E cells [5]; in combination with HEK293E cells) [mmol/L] |
| --- | --- | --- | --- | --- | --- | --- | --- | --- | --- | --- | --- | --- |
| Nc1ncn([C@@H]2O[C@H](CO)[C@@H](O)[C@H]2O)c(=O)n1 [Azacytidine] | 160% ± 15% | 160% ± 10% | act synergistically together with VPA | – | – | – | – | – | – | – | – | – |
| O=C(O)C(Cc1c[nH]c2ccccc12)N1C(=O)c2ccccc2C1=O (stereo not shown) [RG108] | – | – | act synergistically together with VPA | 150% ± 20% | 170% ± 15% | – | – | – | – | – | – | – |
| CCCC(=O)[O-].[Na+] [sodium butyrate] | – | – | – | – | – | 4.8 ± 0.4 | 4.8 ± 0.4 | 1.3 ± 0.1 | 1.9 ± 0.1 | 528 ± 42 | 7.2 | 3 |
